Source: paper PMC3196554 (Chemical research in toxicology, 2010)
Like-named read-outs stand apart in the source and are kept apart here.

What was measured:
[1] = for Amount in urine collected for 10 h after consumption of cooked beef: Mean ± SD of 3 independent measurements; for % Dose in urine collected for 10 h after consumption of cooked beef: metabolites as % of dose of parent MeIQx or PhIP; for Amount in urine, Overall mean: mean of 3 days
[2] = tested on: P450 1A2; conditions: human liver microsomes, cited from earlier work
[3] = cited from earlier work
[4] = tested on: P450 1A2; conditions: subjects given furafylline prior to cooked beef; cited from earlier work
[5] = Acid hydrolysis of conjugates; format: physicochemical; conditions: 50% (v/v) glacial acetic acid or 1 N HCl, 80 °C for 8 h
[6] = human, in vivo

SMILES	Amount in urine collected for 10 h after consumption of cooked beef ([1]; Subject S-001) [ng]	% Dose in urine collected for 10 h after consumption of cooked beef ([1]; Subject S-001) [% Dose]	Amount in urine collected for 10 h after consumption of cooked beef ([1]; Subject S-003) [ng]	% Dose in urine collected for 10 h after consumption of cooked beef ([1]; Subject S-003) [% Dose]	Amount in urine collected for 10 h after consumption of cooked beef ([1]; Subject S-005) [ng]	% Dose in urine collected for 10 h after consumption of cooked beef ([1]; Subject S-005) [% Dose]	Amount in urine collected for 10 h after consumption of cooked beef ([1]; Subject S-008) [ng]	% Dose in urine collected for 10 h after consumption of cooked beef ([1]; Subject S-008) [% Dose]	Amount in urine collected for 10 h after consumption of cooked beef ([1]; Subject S-009) [ng]	% Dose in urine collected for 10 h after consumption of cooked beef ([1]; Subject S-009) [% Dose]	Amount in urine collected for 10 h after consumption of cooked beef ([1]; Subject S-012) [ng]	% Dose in urine collected for 10 h after consumption of cooked beef ([1]; Subject S-012) [% Dose]	Amount in urine collected for 10 h after consumption of cooked beef ([1]; Subject S-013) [ng]	% Dose in urine collected for 10 h after consumption of cooked beef ([1]; Subject S-013) [% Dose]	Amount in urine collected for 10 h after consumption of cooked beef ([1]; Subject S-014) [ng]	% Dose in urine collected for 10 h after consumption of cooked beef ([1]; Subject S-014) [% Dose]	Amount in urine collected for 10 h after consumption of cooked beef ([1]; Subject S-015) [ng]	% Dose in urine collected for 10 h after consumption of cooked beef ([1]; Subject S-015) [% Dose]	Amount in urine collected for 10 h after consumption of cooked beef ([1]; Subject S-020) [ng]	% Dose in urine collected for 10 h after consumption of cooked beef ([1]; Subject S-020) [% Dose]	other results
Cn1c(N)nc2ncc(-c3ccc(O)cc3)cc21 [4'-HO-PhIP, 2-amino-1-methyl-6-(4′-hydroxy)-phenylimidazo[4,5-b]pyridine]	20.1 ± 9.9	0.4	35.0 ± 3.4	0.7	41.7 ± 0.9	0.8	27.0 ± 3.8	0.5	25.2 ± 2.8	0.5	50.1 ± 2.8	1.0	37.2 ± 5.2	0.7	18.4 ± 1.2	0.4	18.3 ± 2.9	0.3	38.3 ± 2.5	0.7	
Cn1c(=NO)n([C@@H]2O[C@H](C(=O)O)[C@@H](O)[C@H](O)[C@H]2O)c2ncc(-c3ccccc3)cc21 [HONH-PhIP-N3-GI, N3-(ß-1-glucosidurony1)-N-hydroxy-2-amino-1-methy1-6-phenylimidazo[4,5-b]pyridine]	238 ± 7.4	2.6	189 ± 10.6	2.1	176 ± 4.2	1.9	222 ± 10.0	2.5	191 ± 5.5	2.1	319 ± 6.0	3.5	179 ± 7.0	2.0	89.5 ± 3.3	1.0	216 ± 12.0	2.4	253 ± 4.9	2.8	
Cn1c(N(O)[C@@H]2O[C@H](C(=O)O)[C@@H](O)[C@H](O)[C@H]2O)nc2ncc(-c3ccccc3)cc21 [HONH-PhIP-N^2-GI, N^2-(ß-1-glucosidurony1)-N-hydroxy-2-amino-1-methy1-6-phenylimidazo[4,5-b]pyridine]	2201 ± 37.3	24.3	2692 ± 121	29.7	2112 ± 88.5	23.3	2198 ± 88.2	24.3	2009 ± 31.0	22.2	2621 ± 86.0	29.0	1848 ± 25.6	20.4	1274 ± 29.0	14.1	2067 ± 103	22.8	2223 ± 15.6	24.6	
Cc1cnc2ccc3c(nc(N)n3C)c2n1 [MeIQx, 2-amino-3,8-dimethylimidazo[4,5-f]quinoxaline]	80.3 ± 2.7	8.7	26.7 ± 1.6	2.9	32.4 ± 1.5	3.5	33.8 ± 1.3	3.7	45.7 ± 1.4	5.0	48.3 ± 1.9	5.2	60.9 ± 3.2	6.6	20.6 ± 0.9	2.2	39.2 ± 2.0	4.2	51.5 ± 2.2	5.6	Vmax, oxidation of the 8-methyl group to form IQx-8-CH2OH [2]: 0.1 nmol/min/mg protein; Vmax, production of HONH-MeIQx [2]: 3.9 nmol/ min/mg of protein; Km ([2]; read-out: Km, oxidation of the 8-methyl group to form IQx-8-CH2OH): 3.1 µM; Km ([2]; read-out: Km, production of HONH-MeIQx): 15 µM; Amount in urine, Overall mean ([1]; Subject 9): 22.1 pg/mL; Amount in urine, Overall mean ([1]; Subject 14): 10.4 pg/mL; Amount in urine, Overall mean ([1]; Subject 20): 29.2 pg/mL; pKa [3]: 5.94; Share of elimination accounted for by P450 1A2 [4]: 90%
Cc1cnc2ccc3c(nc(N[C@@H]4O[C@H](C(=O)O)[C@@H](O)[C@H](O)[C@H]4O)n3C)c2n1 [MeIQx-N^2-Gl, N^2-(ß-1-glucosiduronyl)-2-amino-3,8-dimethylimidazo[4,5-f]quinoxaline]																					Behaviour under acid hydrolysis conditions [5]: quantitatively hydrolyzed to the parent amines
Cc1cnc2ccc3c(nc(NS(=O)(=O)O)n3C)c2n1 [MeIQx-N^2-SO3H, N^2-(3,8-dimethylimidazo[4,5-f]quinoxalin-2-yl)-sulfamic acid]																					Behaviour under acid hydrolysis conditions [5]: quantitatively hydrolyzed to the parent amines
Cc1cnc2cc3nc(N)n(C)c3cc2n1 [MeIgQx, 2-amino-1,7-dimethylimidazo[4,5-g]quinoxaline]																					Increase in amount in urine following acid hydrolysis [6]: up to 5 fold
Cn1c(N[C@@H]2O[C@H](C(=O)O)[C@@H](O)[C@H](O)[C@H]2O)nc2ncc(-c3ccccc3)cc21 [PhIP-N^2-Gl, N^2-(ß-1-glucosidurony1)-2-amino-1-methy1-6-phenylimidazo[4,5-b]pyridine]																					Amount present in urine samples ([1]; urine after meat consumption, LOQ ~50 pg/mL): ~ 50 pg/mL; Behaviour under acid hydrolysis conditions [5]: quantitatively hydrolyzed to the parent amines
